{"source": "paper PMC6021032", "about": "“Antimycobacterial activity of nitrogen heterocycles derivatives: 7-(pyridine-4-yl)-indolizine derivatives. Part VII^8–12” (Journal of Enzyme Inhibition and Medicinal Chemistry, 2017)", "key": {"[1]": {"test": "Cytotoxicity, THP-1 cell viability (CellTiter-Glo)", "settings": "human"}, "CYP2D6": {"molecular_target": "T1, CYP2D6 (Homo sapiens, UniProt P10635)", "T1 construct": "Compounds were incubated with human liver; from tissue; host or cells: human liver microsomes", "T1 sequence (P10635 whole entry)": "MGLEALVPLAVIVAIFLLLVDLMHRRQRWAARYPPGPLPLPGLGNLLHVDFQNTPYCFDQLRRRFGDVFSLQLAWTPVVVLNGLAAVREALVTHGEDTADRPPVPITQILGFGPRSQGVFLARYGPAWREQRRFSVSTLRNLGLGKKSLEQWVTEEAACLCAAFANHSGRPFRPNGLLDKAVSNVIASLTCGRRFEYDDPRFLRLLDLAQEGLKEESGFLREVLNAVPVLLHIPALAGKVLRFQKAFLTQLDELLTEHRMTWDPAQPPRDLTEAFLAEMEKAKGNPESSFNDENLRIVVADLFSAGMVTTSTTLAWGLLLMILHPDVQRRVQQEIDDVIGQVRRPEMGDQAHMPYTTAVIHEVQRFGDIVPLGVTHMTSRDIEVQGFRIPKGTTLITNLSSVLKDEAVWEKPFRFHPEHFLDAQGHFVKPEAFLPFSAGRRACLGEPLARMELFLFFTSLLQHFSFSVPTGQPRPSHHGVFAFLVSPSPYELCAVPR", "test": "Cytochrome P450 inhibition in human liver microsomes", "type": "in vitro ADME"}, "[2]": {"tested_on": "THP-1 cell line infected with Mtb", "test": "Intracellular activity assay, luminescence", "type": "cell-based, Mycobacterium tuberculosis", "settings": "Mycobacterium tuberculosis, Mtb-infected THP-1 cells, 72 h", "experimental": "Since the overall efficacy of any anti TB drug will be improved by its ability to traffic into the macrophage phagosome containing replicating bacteria, we evaluated the intracellular activity of compounds[24]. This was measured by using THP-1 cell line infected with Mtb. Infected cells were exposed to compounds for 72 h and viable bacterial counts were measured using luminescence as a measure of intracellular growth.\nAssay (Promega) which uses ATP as an indicator of cell viability. Relative luminescent units (RLU) were measured using a Biotek Synergy 4 plate reader. The dose response curve was fitted using the Levenberg–Marquardt algorithm. The IC50 was defined as the compound […]\nIntracellular Activity Assay\nThe activity of compounds against intracellular bacteria was determined by measuring viability in infected THP-1 cell after 3 days in the presence of test compounds. Compounds were prepared as 10-point three-fold serial dilutions in DMSO. The highest concentration of […]\nTHP-1 cells were cultured in complete RPMI and differentiated into macrophage-like cells using 80 nM PMA overnight at 37°C, 5% CO2. THP-1 cells were infected with a luminescent strain of H37Rv (which constitutively expresses luxABCDE) at a multiplicity of infection of 1 and incubated overnight at 37°C, 5% CO2. Infected cells were recovered using Accutase/EDTA solution, washed twice with PBS to remove extracellular bacteria and seeded into assay pates. Compound dilutions were added to a final DMSO concentration of 0.5%.\nAssay plates were incubated for 72 h at 37°C, 5% CO2. Each run included isoniazid as a control. Relative luminescent units (RLU) were measured using a Biotek Synergy 2 plate reader. The dose response curve was fitted using the Levenberg–Marquardt algorithm. The […]\ninhibition of growth respectively.\n3. Cycle 3 – Absorption, distribution, metabolism, excretion and toxicity (ADMET)\n3.1. Plasma Protein Binding Assay\nCompounds were added to human plasma at a fixed concentration of 5 µM. The mixture was dialyzed in a RED device (Rapid Equilibrium Dialysis, Pierce) against PBS and incubated on an orbital shaker for 4 h at 37 °C. Aliquots from plasma and PBS sides were collected; an equal volume of PBS was added to the plasma sample, and an equal volume of plasma was added to the PBS sample. Three volumes of methanol (containing the internal binding standard propranolol) was added to precipitate the proteins and release the compound.\nEach compound was tested in duplicate. Samples were centrifuged, the supernatant was […]"}, "CYP2C9": {"molecular_target": "T2, CYP2C9 (Homo sapiens, UniProt P11712)", "T2 construct": "Compounds were incubated with human liver; from tissue; host or cells: human liver microsomes", "T2 sequence (P11712 whole entry)": "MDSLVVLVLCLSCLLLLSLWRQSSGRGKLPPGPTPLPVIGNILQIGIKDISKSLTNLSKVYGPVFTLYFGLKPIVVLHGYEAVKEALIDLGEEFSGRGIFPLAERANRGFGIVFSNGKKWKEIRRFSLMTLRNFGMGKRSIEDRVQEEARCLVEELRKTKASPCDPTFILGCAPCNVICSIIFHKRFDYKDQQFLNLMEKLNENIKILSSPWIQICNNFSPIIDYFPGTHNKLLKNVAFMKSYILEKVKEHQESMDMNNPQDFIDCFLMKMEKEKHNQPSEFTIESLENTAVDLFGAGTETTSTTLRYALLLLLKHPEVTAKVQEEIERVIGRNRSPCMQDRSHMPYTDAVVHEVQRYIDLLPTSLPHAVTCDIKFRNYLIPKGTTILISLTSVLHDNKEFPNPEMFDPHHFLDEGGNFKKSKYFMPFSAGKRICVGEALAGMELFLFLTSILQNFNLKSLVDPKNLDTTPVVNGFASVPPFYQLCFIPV", "test": "Cytochrome P450 inhibition in human liver microsomes", "type": "in vitro ADME"}, "CYP2B6": {"molecular_target": "T3, CYP2B6 (Homo sapiens, UniProt P20813)", "T3 construct": "Compounds were incubated with human liver; from tissue; host or cells: human liver microsomes", "T3 sequence (P20813 1-491)": "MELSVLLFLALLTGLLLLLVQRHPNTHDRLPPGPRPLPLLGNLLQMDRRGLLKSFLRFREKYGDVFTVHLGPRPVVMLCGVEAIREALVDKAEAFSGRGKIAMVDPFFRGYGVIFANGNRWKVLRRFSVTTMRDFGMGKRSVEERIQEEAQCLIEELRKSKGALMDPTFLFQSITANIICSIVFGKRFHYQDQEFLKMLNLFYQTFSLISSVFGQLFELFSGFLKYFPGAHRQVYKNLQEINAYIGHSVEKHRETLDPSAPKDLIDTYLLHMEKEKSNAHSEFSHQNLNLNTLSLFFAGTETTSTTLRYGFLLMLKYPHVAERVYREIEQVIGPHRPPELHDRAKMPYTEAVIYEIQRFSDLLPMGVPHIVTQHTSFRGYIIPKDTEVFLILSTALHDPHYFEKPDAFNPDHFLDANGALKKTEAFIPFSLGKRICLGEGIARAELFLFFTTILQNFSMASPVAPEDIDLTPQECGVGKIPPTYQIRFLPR", "test": "Cytochrome P450 inhibition in human liver microsomes", "type": "in vitro ADME"}, "CYP2C8": {"molecular_target": "T4, CYP2C8 (Homo sapiens, UniProt P10632)", "T4 construct": "Compounds were incubated with human liver; from tissue; host or cells: human liver microsomes", "T4 sequence (P10632 1-490)": "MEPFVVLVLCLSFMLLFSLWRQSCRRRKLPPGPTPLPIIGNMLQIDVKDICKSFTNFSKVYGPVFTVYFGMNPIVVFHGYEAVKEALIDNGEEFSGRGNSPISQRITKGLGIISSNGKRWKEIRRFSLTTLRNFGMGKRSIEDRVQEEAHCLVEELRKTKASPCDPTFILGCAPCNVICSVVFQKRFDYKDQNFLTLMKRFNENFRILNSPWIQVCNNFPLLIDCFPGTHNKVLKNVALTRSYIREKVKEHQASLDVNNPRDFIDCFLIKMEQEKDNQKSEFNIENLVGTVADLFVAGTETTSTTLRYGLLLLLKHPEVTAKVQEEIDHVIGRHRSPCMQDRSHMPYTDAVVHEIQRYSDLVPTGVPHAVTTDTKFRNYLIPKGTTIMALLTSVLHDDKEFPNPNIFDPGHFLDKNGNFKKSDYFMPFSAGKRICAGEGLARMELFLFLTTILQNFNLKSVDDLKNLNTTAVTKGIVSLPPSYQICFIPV", "test": "Cytochrome P450 inhibition in human liver microsomes", "type": "in vitro ADME"}, "Mtb H37Rv": {"tested_on": "Mtb H37Rv", "test": "LORA parallel plates, oxygen-deprived bacteria incubated under aerobic conditions (normal oxygen)", "type": "cell-based, Mycobacterium tuberculosis", "settings": "Mycobacterium tuberculosis, H37RV"}, "M. tuberculosis H37Rv": {"tested_on": "M. tuberculosis H37Rv", "test": "Cycle 2 repeat of MIC, IC50, IC90 under aerobic conditions (lower starting concentrations)", "type": "cell-based, Mycobacterium tuberculosis", "settings": "Mycobacterium tuberculosis, revaluation"}, "[3]": {"test": "Plasma protein binding by equilibrium dialysis"}, "[4]": {"tested_on": "Mycobacterium tuberculosis H37Rv", "test": "Primary screen (Cycle 1): MIC, IC50, IC90 under aerobic conditions", "type": "cell-based"}, "Mycobacterium avium": {"tested_on": "Mycobacterium avium", "test": "MIC against nontuberculous mycobacteria (Alamar blue)", "type": "cell-based", "settings": "M. avium"}, "in vitro": {"test": "in vitro", "settings": "human", "text": "The stability of compound is expressed as a function of time[41]^,[42]\n3.4. In vitro Microsomal Stability Assay\ncompound to detect NADPH-free degradation. Verapamil and dextromethorphan were\nincluded as control compounds."}, "[5]": {"settings": "Mycobacterium tuberculosis, M. tuberculosis H37Rv, aerobic conditions, primary screen"}}}
{"smiles": "CCOC(=O)c1cc(C(=O)c2ccc(Cl)cc2)n2ccc(-c3cc[n+](CC(=O)c4ccc(C)cc4)cc3)cc12", "note": "[Compound 6i]", "values": [{"measurement": "IC50 at 3 days", "setting": "[1]", "result": 3.8, "unit": "µM"}, {"measurement": "IC50", "setting": "CYP2D6", "result": "> 5", "unit": "µM"}, {"measurement": "IC50", "setting": "[2]; read-out: IC50 intracell", "result": 10, "unit": "µM"}, {"measurement": "IC90", "setting": "[2]; read-out: IC90 intracell", "result": 48, "unit": "µM"}, {"measurement": "IC50", "setting": "CYP2C9", "result": "> 5", "unit": "µM"}, {"measurement": "IC50", "setting": "CYP2B6", "result": "> 5", "unit": "µM"}, {"measurement": "IC50", "setting": "CYP2C8", "result": "> 5", "unit": "µM"}, {"measurement": "IC50", "setting": "Mtb H37Rv", "result": 6.5, "unit": "µM"}, {"measurement": "IC90", "setting": "Mtb H37Rv", "result": 28, "unit": "µM"}, {"measurement": "MIC", "setting": "Mtb H37Rv; 120 h, oxygen-deprived bacteria, aerobic 5 d", "result": 140, "unit": "µM"}, {"measurement": "IC50", "setting": "M. tuberculosis H37Rv; aerobic", "result": 9.8, "unit": "µM"}, {"measurement": "IC90", "setting": "M. tuberculosis H37Rv; aerobic", "result": 17, "unit": "µM"}, {"measurement": "MIC", "setting": "M. tuberculosis H37Rv; repeated at lower starting concentrations, read-out: MIC aerobic condition", "result": 16, "unit": "µM"}, {"measurement": "Mean plasma fraction bound", "setting": "[3]; Human plasma, 5 µM, 4 h at 37 °C", "result": "strongly bound"}, {"measurement": "fraction unbound at 4 h, 5 µM", "setting": "[3]; human, human plasma, 5 µM, 4 h at 37 °C", "result": 0.003}, {"measurement": "fraction unbound at 4 h, 5 µM", "setting": "[3]; human, human plasma, Mean plasma fraction unbound, 5 µM, 4 h at 37 °C", "result": 0.0035}, {"measurement": "recovery at 4 h, 5 µM", "setting": "[3]; human, human plasma, dialysed against PBS in a RED device", "result": 48.7, "unit": "%"}, {"measurement": "MIC", "setting": "[4]; M. tuberculosis H37Rv, aerobic conditions, primary screen", "result": 8.0, "unit": "µM"}, {"measurement": "MIC", "setting": "[4]; MIC value taken from the first MIC assay", "result": 8, "unit": "µM"}, {"measurement": "IC50", "setting": "[4]; [5]", "result": 7.2, "unit": "µM"}, {"measurement": "IC90", "setting": "[4]; [5]", "result": 8.2, "unit": "µM"}, {"measurement": "MIC", "setting": "[4]; [5]", "result": 8, "unit": "µM"}, {"measurement": "MIC", "setting": "Mycobacterium avium", "result": 50, "unit": "µM"}, {"measurement": "MIC", "setting": "Mycobacterium avium; Mycobacterium avium", "result": 50, "unit": "µM"}, {"measurement": "NADPH-dependent CLint", "setting": "in vitro; s9", "result": "very highly cleared"}, {"measurement": "microsomal CLint at 1 μM", "setting": "in vitro; s9, NADPH-dependent CLint", "result": 369, "unit": "µL/min/mg"}, {"measurement": "half-life at 1 μM", "setting": "in vitro; s9, NADPH-dependent T1/2", "result": 6.3, "unit": "min"}, {"measurement": "microsomal CLint at 1 μM", "setting": "in vitro; s9, NADPH-free CLint", "result": "< 12.8", "unit": "µL/min/mg"}, {"measurement": "half-life at 1 μM", "setting": "in vitro; s9, NADPH-free T1/2", "result": "> 180", "unit": "min"}]}
